Measurements as given in patent publication US20170052177A1, “COMPETITION ASSAY” (PharmaDiagnostics NV, priority 2014, published 2017).
Ends that are not written are not given here.

Columns and labels:
Neutravidin = Neutravidin (Gallus gallus, UniProt P02701); assay: LSPR competition assay: Neutravidin pre-incubated with HABA or biotin, then biotin-GNR conjugate; assay type: binding; conditions: for ΔRU as a function of the HABA and biotin concentration: fixed Neutravidin, biotin-GNR conjugate, final DMSO 5 w %, increasing concentration of added compound (FIG. 2)
Text: Gold nanorods (GNRs) which are coated with mercaptoundecanoic acid (MUDA) were provided in suspension. The MUDA-coated GNRs provide an outer layer of carboxyl functional groups on their surface. For the conjugation of biotin to the GNRs, a biotin derivative (amino-PEG4-biotin) was used containing a polyethyleneglycol linker (4 monomers) having an amino functional group. More particularly, the carboxyl groups on the GNRs were activated using ethyl(dimethylaminopropyl) carbodiimide (EDC) and N-hydroxysuccinimide (NHS). Then, amino-PEG4-biotin was coupled via its amino functional group to the carboxyl groups provided on the GNRs, thereby providing a biotin-GNR conjugate. Potentially remaining unreacted carboxylic acid groups were blocked via reaction with 2-(2-aminoethoxy)ethanol (AEE). The biotin-GNR conjugate was purified from unreacted EDC, NHS, amino-PEG4-biotin and AEE by buffer exchange using a centrifugal ultrafiltration device.
The determination of the inhibition of the interaction between HABA and Neutravidin according to the methods described herein involves contacting the biotin-GNR conjugate with Neutravidin. The optimal amount of Neutravidin to be contacted with the conjugate was determined via titration. More particularly, a fixed amount of biotin-GNR was incubated with various concentrations of Neutravidin, and the absorbance spectra after incubation was recorded. ΔRU was calculated and plotted as a function of the Neutravidin concentration (FIG. 1). Suitable Neutravidin concentrations are determined as those concentrations which are sufficiently high to provide a detectable signal (ΔRU), provided that the signal is not in the plateau of the dose-response curve. Optimal concentrations are those providing a signal in the linear response range.
A fixed amount of Neutravidin was pre-incubated with different concentrations of HABA and biotin, followed by incubation with a fixed amount of biotin-GNR conjugate. HABA was provided as a solution in DMSO. […] The relative amounts of biotin-GNR and Neutravidin used are determined via titration as described above (A2). […]

MDM2 = MDM2 (Homo sapiens, UniProt Q00987); assay: LSPR competition assay: MDM2 pre-incubated with nutlin-3 or p53, then p53-GNR conjugate; assay type: binding; conditions: fixed MDM2, p53-GNR conjugate; increasing concentration of added compound (FIGS. 4A and 4B)
Chain of MDM2 (Q00987 whole entry, species assumed): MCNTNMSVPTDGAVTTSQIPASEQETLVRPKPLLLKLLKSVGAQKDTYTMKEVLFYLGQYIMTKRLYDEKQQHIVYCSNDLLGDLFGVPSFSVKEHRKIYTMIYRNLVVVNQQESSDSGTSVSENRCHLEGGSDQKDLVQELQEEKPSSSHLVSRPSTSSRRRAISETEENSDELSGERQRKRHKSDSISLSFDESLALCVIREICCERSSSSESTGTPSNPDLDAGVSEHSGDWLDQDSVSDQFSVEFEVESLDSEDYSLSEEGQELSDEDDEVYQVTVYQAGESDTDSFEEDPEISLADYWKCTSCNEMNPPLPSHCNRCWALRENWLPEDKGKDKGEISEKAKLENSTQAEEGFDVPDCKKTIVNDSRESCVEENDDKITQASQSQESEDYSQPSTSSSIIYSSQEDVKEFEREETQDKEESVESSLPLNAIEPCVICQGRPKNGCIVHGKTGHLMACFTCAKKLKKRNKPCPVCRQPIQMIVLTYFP
Protocol: The determination of the inhibition of the interaction between MDM2 and p53 according to the methods described herein involves contacting the p53-GNR conjugate with MDM2. The optimal amount of MDM2 to be contacted with the conjugate was determined via a similar titration experiment as described above for Neutravidin (A2). ΔRU was calculated and plotted as a function of the MDM2 concentration (FIG. 3).

Chain of Neutravidin (P02701 25-152): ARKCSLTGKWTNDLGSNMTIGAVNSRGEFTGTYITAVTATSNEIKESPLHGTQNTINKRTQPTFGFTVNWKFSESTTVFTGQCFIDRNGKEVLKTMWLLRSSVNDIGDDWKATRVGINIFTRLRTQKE

| Compound | ΔRU as a function of the HABA and biotin concentration (Neutravidin) | relative affinity to Neutravidin (Neutravidin; from concentration needed for significant reduction of ΔRU (FIG. 2)) | ΔRU as a function of the added amount of nutlin-3 and p53 (MDM2) |
| --- | --- | --- | --- |
| O=C(O)c1ccccc1N=Nc1ccc(O)cc1 [HABA, (2-(4-hydroxyazobenzene)benzoic acid)] | ΔRU decreases | lower affinity to Neutravidin than biotin | – |
| p53: p53 peptide (Sequence: CGSGSGSGSGSRFMDYWEGL); p53 protein also known as cellular tumor antigen p53 (also: conjugated to gold nanorods, site not given here) | – | – | ΔRU decreases |
| O=C(O)CCCC[C@@H]1SC[C@@H]2NC(=O)N[C@@H]21 [biotin] | ΔRU decreases | – | – |
